Experimental data from patent US20250314661A1, “CHEMIGENETIC TOOLS AND METHODS OF CONTROLLING AND ASSESSING PROTEIN PHASE SEPARATION” (THE REGENTS OF THE UNIVERSITY OF CALIFORNIA, priority 2022, published 2025).

Tests used:
Ctgf = test: RT-qPCR of YAP target gene Ctgf mRNA; format: cell-based; conditions: cells transfected with CEL-EGFP-YAP without the ZIF construct
Procedure: FIG. 6A-D show representative images illustrating that the SparkDrop-Y AP condensates produce nascent RNAs and upregulate a direct target gene of Y AP. […] The cells were short labeled with EU for 1 hour. Arrows point to the induced YAP condensates and the colocalized nascent RNA droplets. Arrowhead points to nucleoli. The nucleus marked by asterisk was not transfected with SparkDrop-YAP. […] Data are shown as meant SD (n=3).
Lastly, whether the SparkDrop-Y AP condensates upregulate mRNA levels of a YAP target gene Ctgf were determined using RT-qPCR. […] As a control, cells were incubated with DMSO. […] Next, a positive control was conducted by incubating cells with sorbitol, which is known to induce osmotic stress and drive YAP condensate formation. […] Lastly, cells were transfected with CEL-EGFP-Y AP (without the ZIF construct), and incubated with lenalidomide or DMSO.

ERK = ERK activity reporter ERK-KTR translocation after lenalidomide-induced SOScat translocation
Source text: The relocated SOScat then activates Ras, which leads to ERK activation via the MAPK pathway.
The presence of SOS in the PM can activate Ras and promote ERK activity via the MAPK pathway (FIG. 2C, left). For targeting SOS to the PM, ZIF was first fused to the CAAX motif tagged with a red fluorescent protein (RFP). Next, CEL was fused to the catalytic domain of SOS (referred to as SOScat), which was tagged with a near infrared fluorescent protein IFP2 that helps visualizing SOScat translocation (FIG. 2C, left). […] To determine whether SOScat translocation activates ERK, a GFP translocation-based ERK activity reporter called ERK-KTR was used, which translocates from the nucleus to the cytoplasm upon activation of endogenous ERK (Regot et al. (2014) Cell 157:1724-1734).

other cells = conditions: cells other than multiple myeloma; Siu et al. (2017); cited from earlier work
[1] = biological target: MYCN fused to FRB and mEGFP (UniProt P04198); test: cell-based or functional assay
DDB1 = biological target: T1, DDB1 (UniProt Q16531 1-1140); test: FLAG pull-down and Western blot against DDB1, HEK293 cells, with or without exogenous DDB1
T1 construct: Tested both as endogenous protein of HEK293 cells and with exogenous over-expression; also called endogenous DDB1; exogenous DDB1
T1 sequence (Q16531 whole entry): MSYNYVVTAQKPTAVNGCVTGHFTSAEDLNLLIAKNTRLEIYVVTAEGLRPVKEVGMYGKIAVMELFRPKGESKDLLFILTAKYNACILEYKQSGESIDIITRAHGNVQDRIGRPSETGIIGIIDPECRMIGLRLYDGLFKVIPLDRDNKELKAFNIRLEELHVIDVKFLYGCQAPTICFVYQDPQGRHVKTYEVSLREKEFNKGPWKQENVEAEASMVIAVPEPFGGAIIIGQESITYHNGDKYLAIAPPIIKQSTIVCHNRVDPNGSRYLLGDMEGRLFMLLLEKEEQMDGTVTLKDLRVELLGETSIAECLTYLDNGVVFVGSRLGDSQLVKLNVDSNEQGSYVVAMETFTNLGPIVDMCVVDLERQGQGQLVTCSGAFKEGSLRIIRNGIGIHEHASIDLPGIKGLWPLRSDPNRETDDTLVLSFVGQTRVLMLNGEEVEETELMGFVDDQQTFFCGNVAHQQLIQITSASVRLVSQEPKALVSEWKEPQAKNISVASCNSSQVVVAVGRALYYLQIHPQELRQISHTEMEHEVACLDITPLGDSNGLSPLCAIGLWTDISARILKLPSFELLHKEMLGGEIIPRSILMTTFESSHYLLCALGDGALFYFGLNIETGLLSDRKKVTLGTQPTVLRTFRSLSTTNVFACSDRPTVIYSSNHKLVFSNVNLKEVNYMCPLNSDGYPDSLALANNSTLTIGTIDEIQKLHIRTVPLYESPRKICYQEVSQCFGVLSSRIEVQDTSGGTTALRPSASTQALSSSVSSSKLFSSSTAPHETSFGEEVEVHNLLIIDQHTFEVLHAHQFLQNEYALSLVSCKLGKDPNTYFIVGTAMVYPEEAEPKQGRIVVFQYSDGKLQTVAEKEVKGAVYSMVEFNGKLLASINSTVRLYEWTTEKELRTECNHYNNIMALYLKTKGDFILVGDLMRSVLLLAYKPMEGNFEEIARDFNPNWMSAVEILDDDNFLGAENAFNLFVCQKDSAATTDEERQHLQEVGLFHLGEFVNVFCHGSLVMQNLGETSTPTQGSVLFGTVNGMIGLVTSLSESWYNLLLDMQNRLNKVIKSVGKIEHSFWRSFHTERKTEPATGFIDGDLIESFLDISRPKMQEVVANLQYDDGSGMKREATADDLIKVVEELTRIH

Sequence of MYCN fused to FRB and mEGFP (P04198 other isoform, or with tags, fused parts or gaps): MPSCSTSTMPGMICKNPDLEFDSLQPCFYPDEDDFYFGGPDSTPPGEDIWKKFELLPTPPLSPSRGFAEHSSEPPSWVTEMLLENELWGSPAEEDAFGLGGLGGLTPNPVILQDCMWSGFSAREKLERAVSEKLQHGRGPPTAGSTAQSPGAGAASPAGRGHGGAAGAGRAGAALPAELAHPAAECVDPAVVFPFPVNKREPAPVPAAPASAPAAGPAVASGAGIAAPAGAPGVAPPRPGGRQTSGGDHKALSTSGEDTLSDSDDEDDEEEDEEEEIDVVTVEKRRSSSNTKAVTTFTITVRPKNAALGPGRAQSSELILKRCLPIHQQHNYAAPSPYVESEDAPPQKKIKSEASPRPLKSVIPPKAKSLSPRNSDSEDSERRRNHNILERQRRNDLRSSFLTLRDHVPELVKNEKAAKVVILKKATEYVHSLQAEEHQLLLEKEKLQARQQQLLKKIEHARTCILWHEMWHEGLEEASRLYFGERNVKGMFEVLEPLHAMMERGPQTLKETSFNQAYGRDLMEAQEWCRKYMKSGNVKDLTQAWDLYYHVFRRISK

Nc1cccc2c1CN(C1CCC(=O)NC1=O)C2=O (stereo not shown) [lenalidomide]
Ctgf mRNA, control without ZIF construct (Ctgf): not upregulated | ERK-KTR translocation (ERK; cells expressing CEL-IFP2-SOScat and ZIF-RFP-CAAX): translocated from the nucleus to the cytoplasm | ERK-KTR translocation, control without ZIF (ERK; cells expressing CEL-IFP2-SOScat without ZIF): did not induce ERK-KTR translocation | toxicity in other cells (other cells): no or little toxicity

O=C1CCC(N2C(=O)c3ccccc3C2=O)C(=O)N1 (stereo not shown) [thalidomide]
toxicity in other cells (other cells): no or little toxicity

SUMO-mCherry-FKBP (from UniProt P62942 2-108)
dissolution of MYCN condensates after addition of rapamycin [1]: 10 min

B1: FLAG-tagged CEL (109 amino acid CRBN C-terminal domain) (other)
chain: SLCCKQCQETEITTKNEIFSLSLCGPMAAYVNPHGYVHETLTVYKACNLNLIGRPSTEHSWFPGYAWTVAQCKICASHIGWKFTATKKDMSPQKFWGLTRSALLPTIPD
notes: Expressed in HEK293 cells; also called CRBN CTD; not shown: FLAG tag
binding result (DDB1): no binding
